{
  "source": "patent US20160015064A1",
  "about": "“COMPOUNDS, COMPOSITIONS, AND METHODS FOR MODULATING SWEET TASTE” (CHROMOCELL CORPORATION, priority 2013, published 2016)",
  "system": "sweetness of orange juice beverage",
  "experiment": "Panel sweetness of 75% orange juice with Compound 3 compared to 100% orange juice",
  "type": "in vivo",
  "description": "Concentrated citrus juice (e.g., orange juice concentrate and lemon juice concentrate) can be used to emulsify flavor oils directly. Dilutions of the Compound 3 were made by dissolving the compound into NEOBEE® M-5 oil at 20 mg/ml and into triacetin at 40 mg/ml. These dilutions were then added to orange juice concentrate (60 brix and 63 brix) and lemon juice concentrate (400 gpl) to deliver a final concentration of 15-30 ppm Compound 3, and blended with the Silverson High Shear Mixer. The juices were diluted to their single strength levels (or less) for final consumption.\nIn one example, Compound 3 was dissolved into triacetin at a concentration of 40 mg/ml. The Compound 3-triacetin mixture was added to orange juice concentrate (1+3 throw) and blended using a high shear mixer. The concentrate was then diluted to a 75% juice product (8.85 brix) and compared to single strength orange juice (11.8 brix). The test sample contained Compound 3 at 20 ppm. Other test variables using 1+5 were included in the panel. Tests were performed with just Compound 3 in orange juice at full strength and 75%. Compound 3 was dosed at 20 and 30 ppm, and the resulting solutions were tested at day 1, 7, 14, and 21. N varied between 9 and 14 panelists.",
  "data": [
    {"smiles": "COc1ccc(C2CC(=O)c3c(O)cccc3O2)cc1O", "note": "(single isomer, unassigned) [Compound 3, 5-hydroxy-2-(3-hydroxy-4-methoxyphenyl)chroman-4-one]", "values": [
      {"measurement": "Relative Sweetness Compared to Control (100% OJ)", "setting": "T1: 75% OJ w/20 ppm, Fresh, Day 1 (Fresh)", "value": "Same as Control"},
      {"measurement": "Relative Sweetness Compared to Control (100% OJ)", "setting": "T2: 75% OJ w/30 ppm, Aged, Day 21", "value": "added sweetness"},
      {"measurement": "Relative Sweetness Compared to Control (100% OJ)", "setting": "T2: 75% OJ w/30 ppm, Fresh, Day 1 (Fresh)", "value": "Same as Control"}
    ]}
  ]
}
